Measured values taken from the Deep4Chem optical property database.

Assay: solvent given as SMILES

With C(=C\c1nc(-c2ccccc2)c2ccccn12)/c1nc(-c2ccccc2)c2ccccn12 the absorption maximum (in CC#N) was 438 nm.

For c1ccc(N2c3ccc4ccccc4c3-c3c4ccccc4nc[n+]3[B-]2(c2ccccc2)c2ccccc2)cc1, the absorption maximum (in C1CCC2CCCCC2C1) was 542 nm, the absorption maximum (in C1CCCCC1) was 539 nm and the absorption maximum (in C1CCOC1) was 535 nm. For the same compound, the absorption maximum (in CC#N) was 527 nm, the absorption maximum (in CC(C)=O) was 530 nm and the absorption maximum (in CCCCCC) was 537 nm. It also gave an absorption maximum (in CCOC(C)=O) of 532 nm, an absorption maximum (in CN(C)C=O) of 532 nm and an absorption maximum (in Cc1ccccc1) of 539 nm. It also gave an absorption maximum (in ClC(Cl)Cl) of 541 nm.

CCOC(=O)c1ccccc1-c1c2ccc(=[N+](CC)CC)cc-2oc2cc(N(CC)CC)ccc12 gave an absorption maximum (in CC#N) of 555 nm, an absorption maximum (in CCO) of 541 nm and an absorption maximum (in CN(C)C=O) of 560 nm. For the same compound, the absorption maximum (in O) was 552 nm.

CC1=CC(C)=[N+]2C1=Cc1c3ccccc3c(C#Cc3cccs3)n1[B-]2(F)F showed an absorption maximum (in CCCCCC) of 621 nm, an absorption maximum (in CCCCCCCCO) of 625 nm and an absorption maximum (in CCOC(C)=O) of 620 nm. It also gave an absorption maximum (in CN(C)C=O) of 626 nm and an absorption maximum (in ClCCl) of 618 nm.

Compound O=C1CCCc2c1[nH]c1cc3c(cc21)OCO3 has an absorption maximum (in C1CCOC1) of 337.3 nm, an absorption maximum (in CC#N) of 335.33 nm and an absorption maximum (in CCCCCCO) of 343.23 nm. The absorption maximum (in CCO) was 338.86 nm, the absorption maximum (in CCOC(C)=O) was 335.84 nm and the absorption maximum (in CS(C)=O) was 340.34 nm. For the same compound, the absorption maximum (in O) was 341.09 nm and the absorption maximum (in c1ccccc1) was 339.29 nm.

BrC1=CN2C[n+]3cc(Br)c4ccccc4c3N=C2c2ccccc21 showed an absorption maximum (in CO) of 457 nm.

With N#CC(C#N)=C(/C=C/c1ccc(N(c2ccccc2)c2ccccc2)cc1)c1ccc2c3c(cccc13)CC2 the absorption maximum (in C1CCOC1) was 485 nm, the absorption maximum (in CC#N) was 486 nm and the absorption maximum (in CC(C)=O) was 485 nm. It also gave an absorption maximum (in CCOC(C)=O) of 482 nm, an absorption maximum (in CN(C)C=O) of 493 nm and an absorption maximum (in CO) of 490 nm. For the same compound, the absorption maximum (in Cc1ccccc1) was 493 nm and the absorption maximum (in ClC(Cl)Cl) was 502 nm.

Work on c1ccc(-c2c3c(c(-c4ccccc4)c4cc5ccccc5cc24)Cc2c(c(-c4ccccc4)c4cc5ccccc5cc4c2-c2ccccc2)C3)cc1 yielded an absorption maximum (in CC#N) of 389 nm, an absorption maximum (in CCCCCC) of 388 nm and an absorption maximum (in CO) of 388 nm. It also gave an absorption maximum (in Cc1ccccc1) of 391 nm and an absorption maximum (in ClCCl) of 392 nm.

COC(=O)c1nc2c(N(C)C)nc(N(C)C)nc2n1Cc1ccccc1 showed an absorption maximum (in C1COCCO1) of 344 nm, an absorption maximum (in CC#N) of 347 nm and an absorption maximum (in CO) of 347 nm. For the same compound, the absorption maximum (in ClCCl) was 351 nm.

In the case of COc1ccc(-c2nc3c(c4c2-c2ccc(C#N)cc2CC4)-c2ccc(C#N)cc2CC3)cc1, the absorption maximum (in C1CCOC1) is reported as 332 nm, the absorption maximum (in CC#N) is reported as 329 nm and the absorption maximum (in CCCCCC) is reported as 336 nm. The absorption maximum (in CCOC(C)=O) was 324 nm, the absorption maximum (in CO) was 326 nm and the absorption maximum (in CS(C)=O) was 331 nm. For the same compound, the absorption maximum (in Cc1ccccc1) was 334 nm and the absorption maximum (in ClCCl) was 333 nm.

CCc1ccc(-n2c3ccccc3c3cc4c(cc32)c2ccccc2n4-c2ccc(CC)cc2)cc1 gave an absorption maximum (in ClC(Cl)Cl) of 409 nm.

Work on O=c1oc2ccccc2nc1-c1ccccc1 yielded an absorption maximum (in c1ccccc1) of 332 nm.

Compound CC(C)(C)c1ccc(C2=c3sc(-c4ccc(C(C)(C)C)cc4)cc3=[N+]3C2=Nc2c(-c4ccc(C(C)(C)C)cc4)c4sc(-c5ccc(C(C)(C)C)cc5)cc4n2[B-]3(F)F)cc1 has an absorption maximum (in ClC(Cl)Cl) of 767 nm.

With C1=C(c2ccc(-c3cccs3)s2)CCC1 the absorption maximum (in C1CCOC1) was 345 nm, the absorption maximum (in CC#N) was 342 nm and the absorption maximum (in CCCCCC) was 341 nm. For the same compound, the absorption maximum (in CCO) was 341 nm, the absorption maximum (in OCCOCCO) was 347 nm and the absorption maximum (in c1ccncc1) was 348 nm.

Work on O=C(c1ccc(N(c2ccccc2)c2ccccc2)cc1)[C@H]1[C@H](c2cccs2)C[C@](O)(c2ccccn2)C[C@]1(O)c1ccccn1 yielded an absorption maximum (in C1CCOC1) of 370 nm, an absorption maximum (in CC#N) of 364 nm and an absorption maximum (in CCO) of 368 nm. For the same compound, the absorption maximum (in CCOC(C)=O) was 366 nm, the absorption maximum (in CN(C)C=O) was 358 nm and the absorption maximum (in ClCCl) was 374 nm. For the same compound, the absorption maximum (in c1ccccc1) was 372 nm.

For c1ccc2c3c(ccc2c1)-c1cc2ccccc2c2cccc-3c12, the absorption maximum (in CCCCCCC) was 381 nm.

For COc1ccc(C2=Cc3ccc4ccccc4[n+]3[B-](F)(F)O2)cc1, the absorption maximum (in ClC(Cl)Cl) was 439 nm.

With COc1ccc(C2=C(c3ccc(OC)cc3)C(C)(C)c3cc(OC)ccc32)cc1 the absorption maximum (in C1CCCCC1) was 296 nm.
